From PubChem BioAssay AID179 (DTP/NCI, 2004)
Activity calls are given as the source filed them.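 Rule for the calls: active = compounds giving half or more protection of infected cells from virus-caused growth loss, again on retest; inactive = the rest.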

Test system: CEM cells HIV-1 protection, formazan growth assay
Experiment: NCI AIDS Antiviral Assay
Details: for IC50: measured here: growth of uninfected CEM cells
Procedure, shortened: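 Screen of anti-HIV-1 activity in human CEM cells using a formazan-based growth measurement at five drug concentrations. Hits with 50% or greater protection were repeated, and confirmation required reproducible complete protection.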

Row | Compound | EC50 [µM] | IC50 [µM] | outcome
1 | COc1ccc(/C(C)=N/NC(=O)CC(=O)N(C(=O)c2ccccc2)c2ccc(C)cc2)cc1 | > 16.2 | > 16.2 | 
2 | O=[N+]([O-])c1ccc(-n2cccc2)cc1 | > 200 | 22.9 | 
3 | CCCC(=O)NC(Nc1cc(C)ccn1)(C(=O)OCC)C(F)(F)F (configuration not stated) | 105 | 501 | 
4 | CCC(O)C1Cc2c(C)cc3c(c2O1)C(=O)c1ccccc1C3=O (configuration not stated) |  |  | inactive
5 | NCCSSCC(N)C(=O)O (configuration not stated) | > 58.9 | > 58.9 | 
6 | Cc1ccc(Nc2c(C#N)[n+]([O-])c3cc(Cl)ccc3[n+]2[O-])cc1 | > 20 | 19.1 | 
7 | COC(=O)c1c(C)cccc1C1CN=NC12Cc1cc(C)c(C)cc1C2=O (configuration not stated) | > 200 | 120 | 
8 | NC1=NC(=O)C(CC(=O)Nc2ccc([N+](=O)[O-])cc2[N+](=O)[O-])S1 (configuration not stated) | > 75.9 | > 75.9 | 
9 | CC1(C)C(C#N)C1C1=C(N2CCOCC2)[C@]2(C)C(OC(=O)c3ccccc3)CC[C@@H]2C1 (some centres not stated) | > 50.1 | 38.9 | 
10 | COC(C)(C)C1(O)CC[C@@H](C)CC1=O (some centres not stated) | > 100 | > 100 | 
11 | O=C(/C=C/c1ccc(Cl)cc1)c1ccccc1 | > 56.2 | 11.2 | 
12 | O=C1c2ccccc2-c2ccc3c4ccc5c6c(ccc(c7ccc1c2c73)c64)-c1ccccc1C5=O | > 200 | > 200 | 
13 | O=C(O)C12CCCC(CCC1)C2 |  |  | inactive
14 | Cc1cn(C2CC([Se]c3ccccc3)C(CO)O2)c(=O)[nH]c1=O (configuration not stated) | > 200 | 95.5 | 
15 | O=C1c2cscc2C(=O)c2cscc21 | > 2 | 0.339 | 
16 | COC(=O)c1ccccc1CC1Cc2cc3c(cc2C1)CCC3 | > 200 | 38 | 
17 | CC(C)(C)C1CCC2c3c([nH]c4ncccc34)C3C(=O)N(c4ccccc4)C(=O)C3C2C1 (configuration not stated) | > 1.78 | > 1.78 | 
18 | O=C(O)C1CSC2c3ccccc3C(=O)N12 (configuration not stated) | > 200 | > 200 | 
19 | COc1ccc2c(=O)c(C)c(/C=C/c3ccco3)oc2c1 | > 158 | 27.5 | 
20 | Nc1ccn(C2OC(CO)CC2F)c(=O)n1 (configuration not stated) | 0.132 | 7.08 | 
21 | CN(CCO)CCN1c2ccccc2Sc2ccccc21 |  |  | inactive
22 | CCOC(=O)/C(C)=C(/O)C(=O)OCC | 214 | 1120 | 
23 | OC/C=C/c1cccc(Cl)c1 |  |  | inactive

Row | Compound | EC50 [µM] | IC50 [µM] | outcome
24 | CC(C)(C)C1=C(Br)C(F)(C(C)(C)C)OP1(=O)c1ccccc1 (configuration not stated) | > 200 | 25.7 | 
25 | COc1cc2c(cc1OC)C1Cc3ccc(OC)c(OC)c3C[N+]1([O-])CC2 (configuration not stated) | > 135 | > 135 | 
26 | O=c1oc(-c2ccccc2)c(-c2ccccc2)n1-c1ccc(Br)cc1 | > 100 | > 100 | 
27 | C1=CN2CCCN3C=CC=c4ccc(c2c43)=C1 | > 200 | 110 | 
28 | CC(=O)OC(Cn1cncn1)(Cn1cncn1)c1ccc(Cl)cc1Cl | > 200 | > 200 | 
29 | C/C(=N\NS(=O)(=O)c1ccc(C)cc1)C(CN1CCCCC1)C(c1ccccc1)c1c(O)c2ccccc2oc1=O (configuration not stated) | > 58.9 | 49 | 
30 | C[C@@H](NS(=O)(=O)c1ccc(NC(=O)c2ccccc2)cc1)C(=O)O |  |  | inactive
31 | CN1CCCNCCN(CCc2ccccn2)CCCN(C)CC1 | > 132 | > 132 | 
32 | Cn1c(-c2ccc(/C=N/NC(N)=NCCCCCCN=C(N)N/N=C/c3ccc(-c4c[n+]5ccccc5n4C)cc3)cc2)c[n+]2ccccc12 | 2.24 | 30.2 | 
33 | COc1ccc(-c2c(C)c(C)[nH]c(=O)c2C(=O)O)c(OCc2ccccc2)c1OC |  |  | inactive
34 | N#Cc1ccc(Oc2cccc(N)c2)cc1C#N | > 214 | > 214 | 
35 | O=C(CSc1nnc(Cc2ccccc2)o1)Nc1ccccc1 | > 209 | > 209 | 
36 | O=C1CNc2cc(N3CCN(c4ccccc4)CC3)ccc2N1 | > 200 | 25.1 | 
37 | COc1ccc2c(c1OC)C(=O)OC2c1c2c(c(OC)c3c1OCO3)C(C1OC(=O)c3c1ccc(OC)c3OC)N(C)CC2 (configuration not stated) |  |  | inactive
38 | N#Cc1c(NC(=O)CN2CCOCC2)c(C(=O)Nc2ccc(Cl)cc2)n2c1CCC2 | > 50.1 | > 50.1 | 
39 | O=S1OC2(c3ccccc3-c3ccccc32)c2ccccc21 (configuration not stated) |  |  | inactive
40 | CCOC(=O)c1c(NC(=O)c2ccccc2)c(C#N)c2n1CCCCC2 | > 100 | > 100 | 
41 | COc1ccc(Cc2c(N)[nH]c(=O)n(C)c2=O)cc1 | > 200 | 89.1 | 
42 | O=C1N(c2ccccc2)N=C(c2ccccc2)C12CC2 | > 200 | 107 | 
43 | CCCCN(Cc1ccccc1)C(=NC#N)N(Cc1ccccc1)Cc1ccccc1 | > 4.9 | > 4.9 | 
44 | CC(=O)NC(CCCN(Cc1ccccc1)C(=O)N(CCCl)N=O)C(=O)NCc1ccccc1 (configuration not stated) | > 74.1 | 45.7 | 
45 | CCN(CC)C(=O)COc1cc2c(O)c3c(O)c(C)c4c(c13)C(=O)C(C)(O/C=C/C(OC)C(C)C(OC(C)=O)C(C)C(O)C(C)C(O)C(C)/C=C/C=C(\C)C(=O)N2)O4 (configuration not stated) | > 200 | 74.1 | 
46 | COC1OC(OCCC#N)C(OCCC#N)C(OCCC#N)C1OCCC#N (configuration not stated) | > 200 | > 200 | 

Row | Compound | EC50 [µM] | IC50 [µM] | outcome
47 | Cc1ccc(SSc2ccc([N+](=O)[O-])cc2)cc1 | > 200 | 9.55 | 
48 | COCOc1ccc(C2(O)Oc3cc(OCOC)ccc3C2C)c(O)c1 (configuration not stated) | > 200 | 24 | 
49 | CC1=C(C(=O)NNC(=O)CC#N)CC(C(=O)NNC(=O)CC#N)=C(C)N1 | > 200 | 123 | 
50 | C(=N\Nc1ccc2ccccc2n1)/c1ccccn1.CC(=O)[O-].CC(=O)[O-].[Zn+2] | > 200 | 1.05 | 
51 | CCCc1cc(=O)oc2c3c(cc(OCC)c12)O[C@H](C)[C@@H](C)C3=O | > 200 | 8.32 | 
52 | CCCCCC(=Nc1n[nH]nc1C(N)=O)OCC | > 200 | > 200 | 
53 | C=CCSCCCC#Cc1ccccc1C(=O)OC | > 200 | 151 | 
54 | CC(CN(C)C)OC(=O)c1cc2ccccc2n1-c1ccccc1 (configuration not stated) | > 200 | 91.2 | 
55 | CCOC1CC(C)N(C(=O)c2ccccc2)O1 (configuration not stated) | > 200 | > 200 | 
56 | c1ccc(N2N=NC3C4CCC(C4)C32)cc1 (configuration not stated) | > 200 | > 200 | 
57 | Nc1c(-c2cccc3ccccc23)c2ccc([N+](=O)[O-])cc2c(=O)n1-c1nc2ccccc2s1 | > 50.1 | 0.676 | 
58 | FC(F)(F)c1ccc(C2=N/S(c3ccccc3)=N\C(c3ccc(C(F)(F)F)cc3)=N/S(c3ccccc3)=N\2)cc1 (configuration not stated) | > 50.1 | > 50.1 | 
59 | O=[N+]([O-])c1cc(S(=O)(=O)c2ccc(S)c([N+](=O)[O-])c2)ccc1S |  |  | inactive
60 | Clc1ccc(/C=N\N2CCCCCC2)cc1Cl | > 200 | 35.5 | 
61 | [N-]=N[N+]#I1OC(C(F)(F)F)(C(F)(F)F)c2ccccc21 |  |  | inactive
62 | COc1ccc2nc3cc(Cl)ccc3c(NCCCN(C)CCCNc3ccc4ncn5c6ccccc6c(=O)c3c45)c2c1 | > 0.251 | 0.166 | 
63 | Nc1nc(Cl)c2[nH]c(Cl)nc2n1 | > 200 | 132 | 
64 | CSc1nc(-c2ccccc2)[nH]c(=O)n1 | > 200 | > 200 | 
65 | O=C(c1c(F)c(F)c(F)c(F)c1F)n1c(=O)[nH]c2ccccc21 | > 200 | 10.7 | 
66 | CCCCCCCCOCC(O)CO (configuration not stated) |  |  | inactive
67 | CCOC(=O)CNC(=O)CNC(=O)CNC(=O)CNNc1c(OCc2ccccc2)c(=O)c1=O | > 200 | > 200 | 
68 | COc1nc2ccc(CNc3ccc(C(=O)O)cc3)cc2nc1OC | > 200 | > 200 | 
69 | Ic1nc(-c2ccccc2)[nH]c1I |  |  | inactive

Row | Compound | EC50 [µM] | IC50 [µM] | outcome
70 | N#CC[P+](c1ccccc1)(c1ccccc1)c1ccccc1 | > 200 | 141 | 
71 | CC1(C)NC(C)(C)/C(=N\O)C(=NO)/C1=N/O | > 200 | > 200 | 
72 | O=C1N=CC2(N=N2)C(=O)N1 | > 200 | 15.5 | 
73 | Nc1nc(N)c2ncn(C3OC(CO)CC3F)c2n1 (configuration not stated) | 34.7 | 93.3 | 
74 | COc1ccc(C2c3cc(OC)c(OC)cc3C(Cc3ccc([N+](=O)[O-])cc3)C2c2ccc([N+](=O)[O-])cc2)cc1OC (configuration not stated) | > 2.51 | > 2.51 | 
75 | Cn1cnc([N+](=O)[O-])c1Sc1nc2ccccc2[nH]1 | > 19.1 | 6.92 | 
76 | COC(=O)c1cc([O-])c2sc(C)c(C)[n+]2n1 | > 1050 | 724 | 
77 | Nc1ccc(C(=O)Oc2ccccc2)c(O)c1 | > 200 | > 200 | 
78 | O=C(O)/C=C/c1ccc2c(c1)CC1(Cc3ccccc3C1)C2 | > 200 | 49 | 
79 | O=S(=O)(SC1=NCCN1)c1ccccc1 | 105 | 302 | 
80 | CCCCOC(=O)/C(O)=C(\C=NC(=S)c1cccnc1)C(=O)C=C(C)C | > 200 | 41.7 | 
81 | COc1ccc(/C=C2\CN(C)C/C(=C\c3ccc(OC)cc3)C2=O)cc1 | > 200 | 85.1 | 
82 | O=C1CCCCCCCCCCOC(=O)CCCCCCCCCCO1 | > 10.2 | > 10.2 | 
83 | CC(=O)OCCc1cccnc1/C=N/O | > 1200 | 204 | 
84 | CCC[C@H]1[C@H](CCC)[C@@]2(OC(=O)C3=C2CCC=C3)[C@]12OC(=O)C1=C2CCC=C1 | > 107 | 20 | 
85 | Cc1nc2cccc(F)c2c(=O)n1-c1nnc(C(F)(F)F)s1 | > 200 | 4.47 | 
86 | CCOC(=O)C1=C(C)/C(=C/c2[n-]c(C)c(C(=O)OCC)c2C)N=C1C.CCOC(=O)C1=C(C)/C(=C/c2[n-]c(C)c(C(=O)OCC)c2C)N=C1C.[Cu+2] | > 200 | > 200 | 
87 | O=C(OCC1CO1)c1cccs1 (configuration not stated) |  |  | inactive
88 | CCCc1cc(=O)oc2c3c(c4c(c12)OC(C)(C)CC4)O[C@H](C)C(C)[C@@H]3O (some centres not stated) | > 200 | 162 | 
89 | O=[N+]([O-])/C(C(Cl)=C(Cl)Cl)=C(\SCc1ccccc1)N1CCCCC1 | > 200 | > 200 | 
90 | O=[N+]([O-])c1cccc2nc3ccccc3c(NCCCCCNc3c4ccccc4nc4cccc([N+](=O)[O-])c34)c12 | 0.0195 | 0.0832 | 
